# Results from patent publication US20260232745A1, “INHIBITION OF METHANE PRODUCTION IN RUMINANTS” (Loam Bio Pty Ltd, priority 2023, published 2026).
# Where two headings read alike, the source gives them in different places.
# B1: Purified VHPO (SEQ ID NO: 5): VHPO of Curvularia pseudobrachyspora US-215; purified from recombinant P. pastoris (protein)
# chain: MGSVIPIPLPKIDEPEEYNTNYVLFWNNVGLELNRVTHTVGGPLTGPPLSARALGMLHLAIHDAYFSIYPPTDFTTFLSPDAENAAYRLPSLNGANDARQAVAGAALKMLSSLYMKPDSSSGGSISDNAYAQLALVIDRSVLKAPGGVDRESASFVFGEAVADVFFALLNDPRGASQEGYHPTPGRYKFDDEPTHPVVLVPVDPNNPNGPKKPFRQYHAPFYGKTTKRFATQTEHFLADPPGLRSNADETAEYDDSIRVAVAMGGAQGLNSTKRSPWQTAQGLFWAYDGSNLVGTPPRFYNQIVRRIAVTYKKEEDLANSEVNNADFARLFALVDVACTDAGIFSWKEKWEYEFWRPLSGVRDDGRPDHGDPFWLTLGAPATNTNDIPFKPPFPAYPSGHATFGGAVFQMVRRYYNGRVGTWKDDEPDNIAIDMVISEELNGLNRDLRQPYDPTAPIEDQPGIVRTRIVRHFDSAWEMMFENAISRIFLGVHWRFDAAAARDILIPTTTKDVYAVDNNGATVFQNVEDIRYSTKGTREDREGLFPIGGVPLGIEIADEIFNNGLRPTPPELQPMPQETPVQKPIGQQLVQGLWHDEEGQVPVVKEAP
# B2: Purified VHPO (SEQ ID NO: 7): VHPO of Curvularia protuberata US-1111; purified from recombinant P. pastoris (protein)
# chain: MGSVTPIPLPKIDEPEEYNTNYILFWNYVGLELNRVTHTVGGPLTGPPLSARALGMLHLAVHDAYFSICPPTDFTTFLSPDAENAAYRLPSTNGANDARQAVAGAALKMLTSLYMKPIEQPNPNPSANISDNAYAQLALVLDRSAMEAPGGIDRESASFMFGEAVADVFFALLNDPRGASQEGYHPTPGRYKFDDEPTHPVVLIPVDPNNPNGPKKPFRQYHAPFYGKTTKRFATQSEHFLADPPGLRSNADETAEYDDAIRVAIAMGGAQALNSTKRSPWQTAQGLYWAYDGSNLIGTPPRFYNQIVRRIAVTYKKEEDIANSEVNNADFARLFALVDVACTDAGIFSWKEKWEFEFWRPLSGVRDDGRPDHGDPFWLTLGAPATNTNDIPFKPPFPAYPSGHATFGGAVFQMVRRYYNGRVGTWKDDEPDNIAIDMMISEELNGLNRDLRQPYDPTAPIEDQPGIVRTRIVRHFDSAWELMFENAISRIFLGVHWRFDAAAARDILIPTTTKDVYAVDNNGATVFQNVEDIRYTTKGTREDREGLFPIGGVPLGIEIANEIFENGLKPTPPEIQPMPQETPAQKPVKGMWQEEQVPVVEEAP
# B3: Purified VHPO (SEQ ID NO: 2): VHPO of Curvularia sp. 4388, reference VHPO; purified from recombinant P. pastoris (protein)
# chain: MGSITPIPLPKIDEPEEYNTNYILFWNHVGLELNRVTHTVGGPLTGPPLSARALGMLHLAIHDAYFSIYPPTDFSTFLSPNAENAAYRLPSPNGANDARQAVAGAALKMLTSLYMKPVETPNPNPGANISDNAYAQLALVIDRSVLKAPGGVDRESASFMFGETVADVFFALLNDPRGASQEGYHPTPGRYKFDDEPTHPVVLIPVDPNNPNGPKKPFRQYHAPFYGKTTKRFATQSEHFLADPPGLRSNADETAEYDDAIRVAIAMGGAQALNSTKRSPWQTAQGLFWAYDGSNLIGTPPRFYNQIVRRIAVTYKKEEDLANSEVNNADFARLFALVDVACTDAGIFSWKEKWEYEFWRPLSGVRDDGRPDHGDPFWLTLGAPATNTNDIPFKPPFPAYPSGHATFGGAVFQMVRRYYNGRVGTWKDDEPDNIAIDMMISEELNGLNRDLRQPYDPTAPIEDQPGIVRTRIVRHFDSAWELMFENAISRIFLGVHWRFDAAAARDILIPTTTKDVYAVDNNGATVFQNVEDIRYTTKGTREDREGLFPIGGVPLGIEIADEIFNNGLKPTPPELQPMPQQTPVQKPVGQQPVQGMWAEEQAPVIKEAP
# B4: Purified VHPO (SEQ ID NO: 3): VHPO of Curvularia spicifera US-188; purified from recombinant P. pastoris (protein)
# chain: MGSVTPIPIPRIDEPEEYNTNYILFWNHVGLELNRITHTVGGPLTGPPLSARALGMLHLAIHDAYFSICPPSDFTTFLSPDAENVAYRLPSLNGADDARQAVAGAALKMLSLLYMKPVEQPNPNPGANISDNAYAQLGLVLDRSVLKAPGGVDQESASFMFGEAVADVFFALLNDPRGASQEGYHPTLGRYKFDDEPTHPVVLIPVDPNNPNGPKKPFRQYHAPFYGKTTKRFATQSEHFLADPPGLRSNADETAEYDDSIRVAIAMGGAQGLNSTKRSPWQTAQGLYWAYDGSNLIGTPPRFYNQIVRRIAVTYKKEEDLANSEVNNADFARLFALVNVACTDAGIFSWKEKWEFEFWRPLSGVRDDGRPDHGDPFWLTLGAPATNTNDIPFKPPFPAYPSGHATFGGAVFQMVRRYYNGRVGTWKDDEPDNIAIDMMISEELNGLNRDLRQPYDPTAPIEDQPGIVRTRIVRHFDSAWEMMFENAISRIFLGVHWRFDAAAARDILIPTTTKDVYAVDNNGATVFQNVEDVRYSTKGTREGREGLFPIGGVPLGIEIADEIFNNGLRPTPPELQPMPQETPVQKPVEGMWEEEQAPIVNEAP
# Columns and labels:
# [1] = test system: Curvularia sp. 4388 (NMI Accession No. V22/011149) VHPO, culture supernatant; details: MCD assay; for Km: pH 5.5, 25° C.
# Protocol: (§1) Kinetic parameters of VHPOs were determined using the monochlorodimedone (MCD) (2-chloro-5,5-dimethyl-1,3-dimedon) assay. The assay was carried out in a 200 μL reaction volume using Greiner UV-Star® 96 well plates. MCD conversion was spectrophotometrically monitored at 290 nm (F=20/mM·cm) using a CLARIOstar® Plus microplate reader (BMG labtech, Germany) at 25° C. […] The buffers were acetate buffer for pH 4-5.5, MES buffer for pH 6 and 6.5, and HEPES buffer for pH 7-8. The MCD mixture was prepared and aliquoted to 96-well plates, followed by enzyme addition (10 μL of appropriate dilution). […] Stock solutions were prepared in advance for KBr (0.25M), Na3VO4 (25 mM), MCD (0.5 mM, adjusted pH to 6), and buffers (1M).
# (§2) The absorbance values were plotted against time. For each curve, the slope of linear regression was determined as the initial velocity (Abs/min) of the enzyme activity.
# [2] = test system: Curvularia sp. 4388 (NMI Accession No. V22/011149) VHPO, purified, SEQ ID NO: 2; details: MCD assay; for Km: pH 5.5, 25° C.
# Protocol: as §1, §2
# (§3) The following enzyme concentrations were used in the MCD assay: • For Curvularia sp.
# [3] = test system: Curvularia protuberata US-1111 (ATCC PTA-127607) VHPO, purified, SEQ ID NO: 7; details: MCD assay; for Km: pH 5.5, 25° C.
# Protocol: as §1, §2, §3
# [4] = test system: Curvularia pseudobrachyspora US-215 (ATCC PTA-127509) VHPO, purified, SEQ ID NO: 5; details: MCD assay; for Ki: pH 5.5, substrate inhibition model; for Km: pH 5.5, 25° C.
# Protocol: as §1, §2, §3
# [5] = test system: Curvularia spicifera US-188 (ATCC PTA-127510) VHPO, purified, SEQ ID NO: 3; details: MCD assay; for Ki: pH 6.5, substrate inhibition model; for Km: pH 6.5, 25° C.
# Protocol: as §1, §2, §3
# [6] = test system: VHPO expressed in Curvularia sp. 4388 (SEQ ID NO: 2); experiment: Enzyme reaction via VHPO mediated pathway, bromoform by GCMS; type: biochemical; details: VHPO (Curvularia sp. AU-4388 supernatant), KBr, H2O2, vanadate, 24 hours at room temperature
# methane production = details: among the antimethanogenic compounds found in A. taxiformis; cited from earlier work
# [7] = test system: methyl-coenzyme M reductase (MCR); details: background; cited from earlier work
# [8] = MCD assay, pH profile of VHPO activity; type: biochemical; details: for Optimal pH: first value of the cell: pH at which the kinetic parameters were determined; for optimal pH of enzyme activity: typical MCD assay, 25° C., value in brackets in Table 8, footnotes and text
# [9] = pH 5.5, final 20-fold dilution of supernatant
# [10] = read-out: KI (Br-), pH 5.5, substrate inhibition model
# [11] = pH 5.5, final 200-fold dilution
# [12] = read-out: KM (H2O2), H2O2 varied
molecule,measurement,setting,value
"[Br-].[K+] [Br-, bromide]",Vmax (Br-),[1]; [9],0.964 [Abs/min]
same,Ki,[1]; [10],1.33 mM
same,Km,"[1]; read-out: KM (Br-), KBr varied",155 µM
same,Vmax (Br-),[2]; [11],0.395 [Abs/min]
same,Ki,[2]; [10],2.9 mM
same,Km,"[2]; read-out: KM (Br-), KBr varied",68 µM
same,Vmax (Br-),"[3]; pH 5.5, final 20-fold dilution",0.0083 [Abs/min]
same,Ki,[3]; [10],33.6 mM
same,Km,"[3]; read-out: KM (Br-), KBr varied",38.7 µM
same,Vmax (Br-),"[4]; pH 5.5, final 20-fold dilution",0.039 [Abs/min]
same,Ki,[4]; read-out: KI (Br-),9.35 mM
same,Km,"[4]; read-out: KM (Br-), KBr varied",73 µM
same,Vmax (Br-),"[5]; pH 6.5, final 20-fold dilution",0.356[Abs/min]
same,Ki,[5]; read-out: KI (Br-),17.5 mM
same,Km,"[5]; read-out: KM (Br-), KBr varied",125 µM
"OO [H2O2, hydrogen peroxide]",Vmax (H2O2),[1]; [9],0.466 [Abs/min]
same,Km,[1]; [12],297 µM
same,Vmax (H2O2),[2]; [11],0.378 [Abs/min]
same,Km,[2]; [12],645 µM
same,Vmax (H2O2),"[3]; pH 5.5, final 20-fold dilution",0.0103 [Abs/min]
same,Km,[3]; [12],611 µM
same,Vmax (H2O2),"[4]; pH 5.5, final 20-fold dilution",0.123 [Abs/min]
same,Ki,[4]; read-out: KI (H2O2),31.3 mM
same,Km,[4]; [12],3300 µM
same,Vmax (H2O2),"[5]; pH 6.5, final 20-fold dilution",0.357 [Abs/min]
same,Ki,[5]; read-out: KI (H2O2),2.76 mM
same,Km,[5]; [12],400 µM
CC1(C)CC(=O)CC(=O)C1 [dimedone],GCMS peak for bromoform,[6],significant peak
ClC(Br)Br [dibromochloromethane],activity at inhibiting methane production,methane production,highest activity
BrC(Br)Br [bromoform],inhibition of methyl-coenzyme M reductase (MCR),[7],competitive inhibitor
"BrC(Br)Br [Bromoform, bromoform]",activity at inhibiting methane production,methane production,highest activity
B1,Optimal pH,[8],pH 5.5
same,optimal pH of enzyme activity,[8],5.5
B2,Optimal pH,[8],5.5
same,optimal pH of enzyme activity,[8],5
same,optimal pH of enzyme activity,[8]; listed as SEQ ID NO: 7,5
B3,Optimal pH,[8],pH 5.5
same,optimal pH of enzyme activity,[8],5.5
B4,Optimal pH,[8],6.5
same,optimal pH of enzyme activity,[8],7
